According to article PMC10020958, “2-(4-Fluorophenyl)-1H-benzo[d]imidazole as a Promising Template for the Development of Metabolically Robust, α1β2γ2GABA-A Receptor-Positive Allosteric Modulators” (ACS Chemical Neuroscience, 2023):

Assays:
[1] = molecular target: GABA-A receptor (benzodiazepine site, α1/γ2 interface); assay: Radioligand binding assay for the GABA-A receptor ([3H]-flunitrazepam displacement, rat brain homogenate); settings: pKi = -log Ki, n.a. = no affinity
[2] = molecular target: T1, α1β2γ2-GABA-A receptors stably expressed in HEK293 cells (Homo sapiens, UniProt P14867+P18507); assay: Electrophysiological studies, automated patch clamp (QPatch16X), positive allosteric modulation of GABA-induced Cl- currents; type: cell-based; settings: compound 1 μM co-applied with 10 μM GABA; GABA alone = 100%; mean ± SEM
T1 construct: expressed in transfected cells
T1 sequence (P14867 28-456): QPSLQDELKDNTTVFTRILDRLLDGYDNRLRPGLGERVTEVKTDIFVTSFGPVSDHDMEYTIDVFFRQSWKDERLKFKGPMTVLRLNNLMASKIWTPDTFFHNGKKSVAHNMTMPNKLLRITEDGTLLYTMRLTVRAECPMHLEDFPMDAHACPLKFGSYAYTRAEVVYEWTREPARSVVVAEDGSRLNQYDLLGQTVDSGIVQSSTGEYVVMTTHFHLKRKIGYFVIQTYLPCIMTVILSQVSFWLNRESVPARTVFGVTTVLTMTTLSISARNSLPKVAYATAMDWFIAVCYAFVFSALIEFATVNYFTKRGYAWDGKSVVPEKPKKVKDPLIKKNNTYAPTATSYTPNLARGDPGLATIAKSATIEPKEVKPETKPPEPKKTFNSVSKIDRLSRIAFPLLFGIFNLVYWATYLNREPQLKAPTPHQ
T1 sequence (P47870 25-512 partner limits assumed): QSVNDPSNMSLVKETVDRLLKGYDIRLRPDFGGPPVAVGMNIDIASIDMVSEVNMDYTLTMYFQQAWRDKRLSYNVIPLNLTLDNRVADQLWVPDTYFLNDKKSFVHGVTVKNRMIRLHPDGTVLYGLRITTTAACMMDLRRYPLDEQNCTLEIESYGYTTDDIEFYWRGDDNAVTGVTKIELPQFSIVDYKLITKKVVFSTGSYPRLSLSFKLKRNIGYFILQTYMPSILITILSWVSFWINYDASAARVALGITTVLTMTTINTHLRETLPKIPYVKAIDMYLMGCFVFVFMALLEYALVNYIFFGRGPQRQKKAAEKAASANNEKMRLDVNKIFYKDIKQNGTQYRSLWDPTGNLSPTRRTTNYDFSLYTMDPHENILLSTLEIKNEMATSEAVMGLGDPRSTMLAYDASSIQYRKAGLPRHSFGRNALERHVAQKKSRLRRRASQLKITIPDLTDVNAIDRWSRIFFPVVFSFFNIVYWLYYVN
T1 sequence (P18507 40-475): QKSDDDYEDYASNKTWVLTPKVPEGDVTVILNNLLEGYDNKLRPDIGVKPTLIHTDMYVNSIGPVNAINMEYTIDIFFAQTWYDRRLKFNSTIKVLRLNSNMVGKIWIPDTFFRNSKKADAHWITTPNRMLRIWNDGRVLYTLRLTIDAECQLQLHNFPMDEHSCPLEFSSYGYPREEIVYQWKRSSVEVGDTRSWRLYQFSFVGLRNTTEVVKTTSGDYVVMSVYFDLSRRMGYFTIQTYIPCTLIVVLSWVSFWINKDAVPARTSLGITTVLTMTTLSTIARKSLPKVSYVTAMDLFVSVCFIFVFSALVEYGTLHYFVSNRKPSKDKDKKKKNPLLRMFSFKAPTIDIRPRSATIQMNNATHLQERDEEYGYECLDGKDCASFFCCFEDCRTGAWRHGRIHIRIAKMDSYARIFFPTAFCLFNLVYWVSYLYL
Experimental: Given that ligands binding within the α1/γ2 interface act as PAMs, we selected the most promising 1H-benzo[d]imidazoles (9, 15, 16, 23, and 29) for electrophysiological studies using automated patch clamp recordings (QPatch16X, Sophion). We expected that 1H-benzo[d]imidazoles would potentiate GABA-induced Cl^– currents rather than inducing ion passage alone.
Electrophysiology studies were performed using the QPatch16X automatic patch clamp platform (Sophion Biosciences) and HEK293 cells, stably expressing the α1β2γ2 subunits of the human GABA-A receptor. Prior to the assay recordings, the cells were transferred from the culture flask through a TrypLE Express solution (LifeTechnologies) and resuspended in serum-free media. The cells were placed in the lidless microtube, located onboard the automated electrophysiology instrument. The cells were then automatically relocated to a built-in centrifuge, spun down, and washed in Ringer’s extracellular solution. The cells were transferred to the pipetting wells of a single-use 16-channel planar patch chip plate (QPlate 16X), and gigaseals were formed upon implementation of a combined suction/voltage protocol. Subsequent suction induced whole-cell configuration. The chloride currents passed via the GABA-A receptor were recorded for 7 s after single addition of a tested molecule. Through whole-cell recording, the holding potential was set to −90 mV. The assay was performed at room temperature. The extracellular solution was composed of the following ingredients: consisted of 2 mM […], 145 mM NaCl, 10 mM HEPES, CaCl2, 1 mM MgCl2, 10 mM glucose (pH 7.4, 300 mOsm), and intracellular solution contained 140 mM CsF, 1 mM EGTA, 5 mM CsOH, 10 mM HEPES, and 20 mMNaCl (pH 7.2, 320 mOsm). The screening assays were established in the instrument software by sequential application of 10 μM GABA (reference agonist AG1), 1 μM examined molecule compounds, and compounds co-administered with 10 μM GABA (T2); second addition of 10 μM GABA (AG2); 10 μM bicuculline (reference antagonist) along with 10 μM GABA (ATG). The intermission among the addition of particular molecules was 60 s. In a typical procedure, 5 μL of ligand was added to the cells, followed by 3 s of washout with an extracellular solution (two times […]). For the allosteric modulator/antagonist mode, the cells were preincubated with the tested compound alone for 50 s, followed by the addition of the reference agonist. The data obtained were processed using QPatch Assay Software (v5.0, Sophion Biosciences) and are represented as the mean of at least three independent experiments performed on separate cells. The validation criteria for a single test were current amplitude evoked by adding GABA greater than 500 pA and a change between cells’ response to GABA applications (AG1 and AG2) not greater than 25%. The relative compound efficiency was analyzed as the baseline-corrected ratio of maximal current amplitudes induced by the addition of tested compounds and reference agonist (T1-ATG/AG1-ATG or T2-ATG/AG1-ATG). The obtained raw current recordings were normalized and represented as % of the current amplitude induced by a reference agonist (GABA = 100%) using the QPatch Assay Software (v5.0, Sophion Biosciences).[24]

| SMILES | melting point [°C] | pKi GABA-A [1] | % of 10 μM GABA response [2] |
| --- | --- | --- | --- |
| Cc1ccc2c(c1)nc(-c1ccc(F)cc1)n2CC(=O)N1CCCC1 [Compound 10, 2-(2-(4-Fluorophenyl)-5-methyl-1H-benzo[d]imidazole-1-yl)-1-(pyrrolidin-1-yl)ethan-1-one] | 208.7 to 210.2 | no affinity | – |
| Cc1ccc2nc(-c3ccc(F)cc3)n(CC(=O)N3CCSCC3)c2c1 [Compound 11, 2-(2-(4-Fluorophenyl)-6-methyl-1H-benzo[d]imidazole-1-yl)-1-thiomorpholinoethan-1-one] | 205.3 to 207.1 | 5.1 | – |
| Cc1ccc2c(c1)nc(-c1ccc(F)cc1)n2CC(=O)N1CCSCC1 [Compound 12, 2-(2-(4-Fluorophenyl)-5-methyl-1H-benzo[d]imidazole-1-yl)-1-thiomorpholinoethan-1-one] | 199 to 200.9 | no affinity | – |
| Cc1ccc2nc(-c3ccc(F)cc3)n(CC(=O)Nc3ccccc3)c2c1 [Compound 13, 2-(2-(4-Fluorophenyl)-6-methyl-1H-benzo[d]imidazole-1-yl)-N-phenylacetamide] | 202.5 to 205 | 5.53 | – |
| Cc1ccc2c(c1)nc(-c1ccc(F)cc1)n2CC(=O)Nc1ccccc1 [Compound 14, 2-(2-(4-Fluorophenyl)-5-methyl-1H-benzo[d]imidazole-1-yl)-N-phenylacetamide] | 207.3 to 209.2 | no affinity | – |
| CN(C)C(=O)Cn1c(-c2ccc(F)cc2)nc2ccccc21 [Compound 15, 2-(2-(4-Fluorophenyl)-1H-benzo[d]imidazole-1-yl)-N,N-dimethylacetamide] | 182.3 to 183.1 | 5.39 | 105 ± 2,5% |
| O=C(Cn1c(-c2ccc(F)cc2)nc2ccccc21)N1CCCC1 [Compound 16, 2-(2-(4-Fluorophenyl)-1H-benzo[d]imidazole-1-yl)-1-(pyrrolidin-1-yl)ethan-1-one] | 212.9 to 214 | 5.53 | 124 ± 5,2% |
| O=C(Cn1c(-c2ccc(F)cc2)nc2ccccc21)N1CCNCC1 [Compound 17, 2-(2-(4-Fluorophenyl)-1H-benzo[d]imidazole-1-yl)-1-(piperazin-1-yl)ethan-1-one] | 232.8 to 234.1 | loss of activity | – |
| CN1CCN(C(=O)Cn2c(-c3ccc(F)cc3)nc3ccccc32)CC1 [Compound 18, 2-(2-(4-Fluorophenyl)-1H-benzo[d]imidazole-1-yl)-1-(4-methylpiperazin-1-yl)ethan-1-one] | 172.3 to 173.1 | – | – |
| CC1CN(C(=O)Cn2c(-c3ccc(F)cc3)nc3ccccc32)CC(C)N1 (stereo not drawn) [Compound 19, 1-(3,5-Dimethylpiperazin-1-yl)-2-(2-(4-fluorophenyl)-1H-benzo[d]imidazole-1-yl)ethan-1-one] | 109.6 to 112.4 | – | – |
| O=C(Cn1c(-c2ccc(F)cc2)nc2ccccc21)N1CCOCC1 [Compound 20, 2-(2-(4-Fluorophenyl)-1H-benzo[d]imidazole-1-yl)-1-morpholinoethan-1-one] | – | loss of activity | – |
| O=C(Cn1c(-c2ccc(F)cc2)nc2ccccc21)N1CCSCC1 [Compound 21, 2-(2-(4-Fluorophenyl)-1H-benzo[d]imidazole-1-yl)-1-thiomorpholinoethan-1-one] | 205.3 to 205.8 | – | – |
| O=C(Cn1c(-c2ccc(F)cc2)nc2ccccc21)Nc1ccccc1 [Compound 22, 2-(2-(4-Fluorophenyl)-1H-benzo[d]imidazole-1-yl)-N-phenylacetamide] | 236.7 to 239 | – | – |
| COc1ccccc1NC(=O)Cn1c(-c2ccc(F)cc2)nc2ccccc21 [Compound 24, 2-(2-(4-Fluorophenyl)-1H-benzo[d]imidazole-1-yl)-N-(2-methoxyphenyl)acetamide] | 206.9 to 207.2 | loss of affinity | – |
| COc1cccc(NC(=O)Cn2c(-c3ccc(F)cc3)nc3ccccc32)c1 [Compound 25, 2-(2-(4-Fluorophenyl)-1H-benzo[d]imidazole-1-yl)-N-(3-methoxyphenyl)acetamide] | 149.1 to 149.9 | 5.02 | – |
| COc1ccc(NC(=O)Cn2c(-c3ccc(F)cc3)nc3ccccc32)cc1 [Compound 26, 2-(2-(4-Fluorophenyl)-1H-benzo[d]imidazole-1-yl)-N-(4-methoxyphenyl)acetamide] | 255.1 to 255.7 | loss of affinity | – |
| O=C(Cn1c(-c2ccc(F)cc2)nc2ccccc21)Nc1ccccc1F [Compound 27, N-(2-Fluorophenyl)-2-(2-(4-fluorophenyl)-1H-benzo[d]imidazole-1-yl)acetamide] | 212.1 to 212.8 | – | – |
| O=C(Cn1c(-c2ccc(F)cc2)nc2ccccc21)Nc1cccc(F)c1 [Compound 28, N-(3-Fluorophenyl)-2-(2-(4-fluorophenyl)-1H-benzo[d]imidazole-1-yl)acetamide] | 182.3 to 182.7 | – | – |
| O=C(Cn1c(-c2ccc(F)cc2)nc2ccccc21)Nc1ccc(F)cc1 [Compound 29, N-(4-Fluorophenyl)-2-(2-(4-fluorophenyl)-1H-benzo[d]imidazole-1-yl)acetamide] | 248 to 248.2 | 5.74 | 112 ± 2,8% |
| Cc1ccc(-c2nc3ccc(C)cn3c2CC(=O)N(C)C)cc1 [zolpidem, reference compound] | – | 7.39 | 212 ± 8,5% |
